Literature values, collected in patent US10646565B2, “Treatment of alzheimer'S disease (AD) with an aluminum salt” (AFFIRIS AG, priority 2014, dated 2020).

Target: T1, Ovalbumin (Gallus gallus, UniProt P01012)
T1 sequence (P01012 1-386): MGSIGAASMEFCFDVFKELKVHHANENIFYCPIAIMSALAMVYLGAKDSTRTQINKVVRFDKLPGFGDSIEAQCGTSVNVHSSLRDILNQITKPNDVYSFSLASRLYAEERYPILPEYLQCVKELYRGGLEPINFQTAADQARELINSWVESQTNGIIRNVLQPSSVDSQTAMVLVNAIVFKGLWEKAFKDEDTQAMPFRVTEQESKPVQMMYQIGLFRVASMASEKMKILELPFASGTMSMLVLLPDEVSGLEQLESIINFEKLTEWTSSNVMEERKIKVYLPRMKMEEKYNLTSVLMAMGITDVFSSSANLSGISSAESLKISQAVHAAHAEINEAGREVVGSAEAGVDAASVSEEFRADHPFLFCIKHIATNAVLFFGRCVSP
Details: pH 7.4; cited from earlier work

aluminium oxyhydroxide
maximal binding capacity to Ovalbumin (pI 4.6): 1.6±0.1 mg protein/mg aluminum
